Measurements reported in PubChem BioAssay (NCI).
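Tested at 5 concentrations; 48 h exposure; 96-well plates; endpoints linearly interpolated, else capped at highest concentration. At the TGI there is no net growth.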

How the values were obtained:
Assay in all cases: growth of human tumour cells (NCI), 48 h
SK-MEL-5 melanoma = system: SK-MEL-5 melanoma
BT-549 breast = system: BT-549 breast
LOX IMVI melanoma = system: LOX IMVI melanoma
RPMI-8226 leukemia = system: RPMI-8226 leukemia
SF-295 CNS = system: SF-295 CNS
OVCAR-8 ovarian = system: OVCAR-8 ovarian
MDA-MB-435 = system: MDA-MB-435
SF-268 CNS = system: SF-268 CNS
NCI-H23 lung = system: NCI-H23 lung
SF-539 CNS = system: SF-539 CNS
SN12C renal = system: SN12C renal
HS 578T breast = system: HS 578T breast
OVCAR-3 ovarian = system: OVCAR-3 ovarian
NCI/ADR-RES ovarian = system: NCI/ADR-RES ovarian
HL-60(TB) leukemia = system: HL-60(TB) leukemia
SNB-19 CNS = system: SNB-19 CNS
EKVX NSCLC = system: EKVX NSCLC
IGROV1 ovarian = system: IGROV1 ovarian
COLO 205 colon = system: COLO 205 colon
PC-3 prostate = system: PC-3 prostate
CCRF-CEM leukemia = system: CCRF-CEM leukemia
NCI-H226 lung = system: NCI-H226 lung
SK-MEL-28 melanoma = system: SK-MEL-28 melanoma
OVCAR-5 ovarian = system: OVCAR-5 ovarian
DU-145 prostate = system: DU-145 prostate
UACC-257 melanoma = system: UACC-257 melanoma
SW-620 colon = system: SW-620 colon
NCI-H460 lung = system: NCI-H460 lung
MCF7 breast = system: MCF7 breast
M14 melanoma = system: M14 melanoma
SK-MEL-2 melanoma = system: SK-MEL-2 melanoma
ACHN renal = system: ACHN renal
HCT-116 colon = system: HCT-116 colon
A498 renal = system: A498 renal
SNB-75 CNS = system: SNB-75 CNS
HT29 colon = system: HT29 colon
HCT-15 colon = system: HCT-15 colon
K-562 leukemia = system: K-562 leukemia
UACC-62 melanoma = system: UACC-62 melanoma
MDA-MB-231 breast = system: MDA-MB-231 breast
TK-10 renal = system: TK-10 renal
MALME-3M melanoma = system: MALME-3M melanoma
MOLT-4 leukemia = system: MOLT-4 leukemia
SR leukemia = system: SR leukemia
CAKI-1 renal = system: CAKI-1 renal
KM12 colon = system: KM12 colon
786-0 renal = system: 786-0 renal
SK-OV-3 ovarian = system: SK-OV-3 ovarian
HOP-62 NSCLC = system: HOP-62 NSCLC

`COC1=CC(=O)N(C(=O)C2CSC(C(CO)NC(=O)c3csc(/C=N/O)n3)=N2)C1` (centres undefined) was tested. Which TGI (SK-MEL-5 melanoma) did it give?
Its TGI is greater than 100 µM.

What about the TGI (BT-549 breast) of the same molecule?
The TGI was greater than 100 µM.

What about the TGI (LOX IMVI melanoma) of the same molecule?
The TGI was greater than 100 µM.

What about the TGI (RPMI-8226 leukemia) of the same molecule?
The TGI was greater than 100 µM.

And the TGI (SF-295 CNS)?
Its TGI is greater than 100 µM.

And the TGI (OVCAR-8 ovarian)?
The TGI was greater than 100 µM.

What about the TGI (MDA-MB-435) of the same molecule?
Its TGI is greater than 100 µM.

What about the TGI (SF-268 CNS) of the same molecule?
The TGI was greater than 100 µM.

And the TGI (NCI-H23 lung)?
Its TGI is greater than 100 µM.

What about the TGI (SF-539 CNS) of the same molecule?
The TGI was greater than 100 µM.

What about the TGI (SN12C renal) of the same molecule?
Its TGI is greater than 100 µM.

And the TGI (HS 578T breast)?
The TGI was greater than 100 µM.

And the TGI (OVCAR-3 ovarian)?
Its TGI is greater than 100 µM.

What about the TGI (NCI/ADR-RES ovarian) of the same molecule?
The TGI was greater than 100 µM.

What about the TGI (HL-60(TB) leukemia) of the same molecule?
Its TGI is greater than 100 µM.

And the TGI (SNB-19 CNS)?
Its TGI is greater than 100 µM.

What about the TGI (EKVX NSCLC) of the same molecule?
Its TGI is greater than 100 µM.

And the TGI (IGROV1 ovarian)?
Its TGI is greater than 100 µM.

And the TGI (COLO 205 colon)?
Its TGI is greater than 100 µM.

And the TGI (PC-3 prostate)?
Its TGI is greater than 100 µM.

What about the TGI (CCRF-CEM leukemia) of the same molecule?
The TGI was greater than 100 µM.

What about the TGI (NCI-H226 lung) of the same molecule?
Its TGI is greater than 100 µM.

And the TGI (SK-MEL-28 melanoma)?
The TGI was greater than 100 µM.

And the TGI (OVCAR-5 ovarian)?
The TGI was greater than 100 µM.

What about the TGI (DU-145 prostate) of the same molecule?
The TGI was greater than 100 µM.

And the TGI (UACC-257 melanoma)?
Its TGI is greater than 100 µM.

What about the TGI (SW-620 colon) of the same molecule?
The TGI was greater than 100 µM.

And the TGI (NCI-H460 lung)?
Its TGI is greater than 100 µM.

What about the TGI (MCF7 breast) of the same molecule?
The TGI was greater than 100 µM.

What about the TGI (M14 melanoma) of the same molecule?
Its TGI is greater than 100 µM.

What about the TGI (SK-MEL-2 melanoma) of the same molecule?
The TGI was greater than 100 µM.

And the TGI (ACHN renal)?
The TGI was greater than 100 µM.

And the TGI (HCT-116 colon)?
Its TGI is greater than 100 µM.

What about the TGI (A498 renal) of the same molecule?
The TGI was greater than 100 µM.

And the TGI (SNB-75 CNS)?
The TGI was 91 µM.

And the TGI (HT29 colon)?
Its TGI is greater than 100 µM.

What about the TGI (HCT-15 colon) of the same molecule?
The TGI was greater than 100 µM.

What about the TGI (K-562 leukemia) of the same molecule?
Its TGI is greater than 100 µM.

And the TGI (UACC-62 melanoma)?
The TGI was greater than 100 µM.

And the TGI (MDA-MB-231 breast)?
The TGI was greater than 100 µM.

And the TGI (TK-10 renal)?
The TGI was greater than 100 µM.

What about the TGI (MALME-3M melanoma) of the same molecule?
Its TGI is greater than 100 µM.

And the TGI (MOLT-4 leukemia)?
Its TGI is greater than 100 µM.

And the TGI (SR leukemia)?
Its TGI is greater than 100 µM.

And the TGI (CAKI-1 renal)?
The TGI was greater than 100 µM.

And the TGI (KM12 colon)?
Its TGI is greater than 100 µM.

What about the TGI (786-0 renal) of the same molecule?
Its TGI is greater than 100 µM.

And the TGI (SK-OV-3 ovarian)?
Its TGI is greater than 100 µM.

And the TGI (HOP-62 NSCLC)?
The TGI was greater than 100 µM.
